Results reported in patent publication US8247397B2, “Combinations of phosphoinositide 3-kinase inhibitor compounds and chemotherapeutic agents, and methods of use” (Genentech, Inc., priority 2007, dated 2012).

Key:
[1] = system: PKA; conditions: concentrations as high as 50 μM; cited from earlier work
[2] = system: PKC; conditions: concentrations as high as 50 μM; cited from earlier work
[3] = target: T1, SGK (Homo sapiens, UniProt O00141); conditions: concentrations as high as 50 μM; cited from earlier work
T1 sequence (O00141 1-431): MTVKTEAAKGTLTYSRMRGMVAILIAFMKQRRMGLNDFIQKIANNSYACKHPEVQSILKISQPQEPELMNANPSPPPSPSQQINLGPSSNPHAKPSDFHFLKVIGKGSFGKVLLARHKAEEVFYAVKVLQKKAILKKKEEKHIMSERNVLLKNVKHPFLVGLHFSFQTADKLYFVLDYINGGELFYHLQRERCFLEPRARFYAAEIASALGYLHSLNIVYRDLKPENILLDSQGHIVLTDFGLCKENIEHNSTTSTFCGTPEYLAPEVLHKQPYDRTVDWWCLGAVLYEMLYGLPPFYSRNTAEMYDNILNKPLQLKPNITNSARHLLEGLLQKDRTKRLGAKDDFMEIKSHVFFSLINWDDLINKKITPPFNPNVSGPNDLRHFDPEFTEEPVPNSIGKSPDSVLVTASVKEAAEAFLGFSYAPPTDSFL

[4] = system: MDA-MB-361.1 breast tumor cell xenografts; assay: In vivo tumor xenograft; design: species or system mouse; conditions: for tumor inhibition: docetaxel 5 mg/kg iv day 1, 5, 9
Description: (§1) The efficacy of the combinations of the invention may be measured in vivo by implanting allografts or xenografts of cancer cells in rodents and treating the tumor-bearing animals with the combinations. Variable results are to be expected depending on the cell line, the presence or absence of certain mutations in the tumor cells, the sequence of administration of Formula I or II compound and chemotherapeutic agent, dosing regimen, and other factors. Subject mice were treated with drug(s) or control (Vehicle) and monitored over several weeks or more to measure the time to tumor doubling, log cell kill, and tumor inhibition (Example 17).
(§2) Animals suitable for transgenic experiments can be obtained from standard commercial sources. Groups of female CD-1 nude mice (Charles River Laboratory) were implanted subcutaneously in the hind flank with 20 million MDA-MB-361.1 (PI3K mutant) breast cancer cells with matrigel and 0.36 mg of estrogen implants per mouse. Groups of female NMRI nu/nu mice (Janvier) were implanted with 150 mm3 fragments of MAXF 401 (Her2+/ER+/PR^+) or MAXF 1162 (Her2+/ER+/PR^+) primary breast tumors (biopsied directly from two individual breast cancer patients) with matrigel and 0.36 mg of estrogen pellets per mouse. Groups of female HRLN nu/nu (Harlan Labs) were implanted with 10 million MCF-7 (PI3K mutant) breast cancer cells with matrigel and 0.36 mg of estrogen pellets per mouse. Groups of female athymic nu/nu mice (Charles River Laboratory) were implanted with 15 million NCI-H2122 (K-Ras mutant) non-small cell lung cancer cells and matrigel per mouse. Mouse xenografts were dosed at day 1 with drug, drug combination, or vehicle according to the schedule specified for each tumor model. Docetaxel was administered intravenously, B20-1.4 was administered intraperitonealy and Formula Ia and IIa were delivered per os by oral gavage. Tumor sizes were recorded twice weekly over the course of the study. Mouse body weights were also recorded twice weekly, and the mice were observed regularly. Tumor volume was measured in two dimensions (length and width) using Ultra Cal-IV calipers (Model 54-10-111; Fred V. Fowler Co., Inc.; Newton, Mass.) and analyzed using Excel v.11.2 (Microsoft Corporation; Redmond, Wash.). Tumor inhibition graphs were plotted using KaleidaGraph, Version 3.6 (Synergy Software; Reading, Pa.). The tumor volume was calculated with formula: Tumor size (mm^3)=(longer measurement×shorter measurement^2)×0.5
(§3) The percent tumor growth inhibition (% INH) at the end of study (EOS) was calculated using formula: % INH=100×(EOS mean volume of tumors in animals given vehicle−EOS mean volume of tumors in animals given the drug)/EOS mean volume of tumors in animals given vehicle.
(§4) Tumor incidence (TI) was determined based on the number of measurable tumors remaining in each group at the end of the study. A partial response (PR) was defined as a>50% but <100% reduction in tumor volume, compared with the starting tumor volume, observed on any day of the study. A complete response (CR) was defined as a 100% reduction in tumor volume, compared with the initial tumor volume, observed on any day of the study. Data were analyzed and p-values were determined using the Dunnett's test with JMP statistical software, version 5.1.2 (SAS Institute; Cary, N.C.). Individual tumor volumes at end of study and mean tumor volume±SEM values were calculated using JMP statistical software, version 5.1.2. Body weight data were graphed based on the mean percentage of change from initial body weights±SEM.

[5] = system: MCF-7 (PI3K mutant) breast tumor cell xenografts; assay: In vivo tumor xenograft; design: species or system mouse; conditions: after 21 days; for tumor inhibition: mB20-4.1 5 mg/kg ip twice a week 3 weeks
Description: as §1, §2, §3, §4

[6] = system: MAXF 401 primary breast tumor explant xenografts; assay: In vivo tumor xenograft; design: species or system mouse
Description: as §1, §2, §3, §4

[7] = system: NCI-H2122 non-small cell lung cancer (NSCLC) tumor xenografts; assay: In vivo tumor xenograft; design: species or system mouse; conditions: erlotinib 75 mg/kg
Description: as §1, §2, §3, §4

[8] = system: MAXF 1162 primary breast tumor explant xenografts; assay: In vivo tumor xenograft; design: species or system mouse; conditions: after 49 days, docetaxel 15 mg/kg iv day 0, 11, 22, 44
Description: as §1, §2, §3, §4

[9] = Oral bioavailability; conditions: in vivo
[10] = system: pancreatic adenocarcinoma (PDAC) tumors; assay: Genetically engineered mouse model (GEMM) for pancreatic cancer; type: in vivo
From the text: (§5) […]. Cancer Res. 12(18):5312-5328; US 2007/0292948, both of which are incorporated by reference in their entirety). The surprising and unexpected results from these experiments may predict the clinical response of certain patient populations having select tumor types and mutations to such combination therapy with Formula I and II compounds and chemotherapeutic agents.
A GEMM for pancreatic cancer (Aguirre et al. (2003) Genes & Development 17:3112-3126) encompasses the mutations found in a majority of patients with this disease.

[11] = system: K-ras-driven NSCLC tumors; assay: K-ras-driven NSCLC GEMM; type: in vivo, mouse
From the text: as §5

[12] = system: small cell lung cancer (SCLC) tumors; assay: Genetically engineered mouse model (GEMM) for SCLC; type: in vivo
From the text: as §5

[13] = system: pAkt (Ser473) in MDA-MB-361 cells; assay: Phospho AKT induction assay; type: cell-based; conditions: synergistic cell line MDA-MB-361, EC80 dosing, 1 hr to 24 hr
Description: Phospho Akt (pAkt) levels can be measured by the method described in Example 18. Low CI correlates with the effect of the chemotherapeutic to induce an increase in pAkt. Levels of pAkt (Ser473) were determined using bead kits from Biosource (Carlsbad, Calif.) and the Luminex Bio-Plex system (Bio-Rad, Hercules, Calif.).
In a 6-well tissue culture plate cells were seeded at 5×10^5 cells per well overnight. Cells were treated with an EC80 of the chemotherapeutic agent. Following treatment, cells were washed once with cold PBS and lysed in 1× Cell Extraction Buffer from Biosource (Carlsbad, Calif.) supplemented with protease inhibitors (Roche, Mannheim, Germany), 1 mM PMSF, and Phosphatase Inhibitor Cocktails 1 and 2 from Sigma (St. Louis, Mo.). Determination of protein concentration was performed using the Pierce BCA Protein Assay Kit (Rockford, Ill.). Levels of pAkt (Ser^473) and total Akt were assessed using bead kits from Biosource (Carlsbad, Calif.) and the Luminex Bio-Plex system (Bio-Rad, Hercules, Calif.).

[14] = system: pERK; conditions: cited from earlier work
[15] = FIG. 23, after 21 days, Formula IIa 37.5 mg/kg oral daily 21 days
[16] = FIG. 23, after 21 days, groups of 10 animals
[17] = FIG. 25, day 28, Formula IIa 100 mg/kg oral day 0-3, 11-17, 21-28, docetaxel 15 mg/kg iv day 0 and 11
[18] = FIG. 25, end of the study (day 50)
[19] = FIG. 27, Formula IIa 100 mg/kg oral
[20] = FIG. 22, after 21 days, CD-1 nude mice, Formula Ia 150 mg/kg oral daily 21 days
[21] = FIG. 22, after 41 days, Formula Ia 150 mg/kg oral daily 21 days
[22] = FIG. 22, after 41 days, groups of 11 (Formula Ia), 10 (docetaxel), 9 (combination) animals
[23] = FIG. 24, day 28, NMRI nu/nu mice, Formula Ia 100 mg/kg oral day 0-4, 11-17, 21-28, docetaxel 15 mg/kg iv day 0 and 11
[24] = FIG. 24, end of the study (day 50)
[25] = FIG. 26, Formula Ia 100 mg/kg oral

Molecule: O=c1[nH]c2ccccc2n1C1CCN(Cc2ccc(-c3nc4cc5[nH]cnc5cc4nc3-c3ccccc3)cc2)CC1 [Akti-1/2, 1,3-dihydro-1-(1-((4-(6-phenyl-1H-imidazo[4,5-g]quinoxalin-7-yl)phenyl)methyl)-4-piperidinyl)-2H-benzimidazol-2-one]
- inhibitory effect [1]: does not exhibit any inhibitory effect
- inhibitory effect [2]: does not exhibit any inhibitory effect
- inhibitory effect [3]: does not exhibit any inhibitory effect

Molecule: CS(=O)(=O)N1CCN(Cc2cc3c(N4CCOCC4)nc(-c4cccc5[nH]ncc45)nc3s2)CC1 [Formula IIa, 4-(2-(1H-indazol-4-yl)-6-((4-(methylsulfonyl)piperazin-1-yl)methyl)thieno[2,3-d]pyrimidin-4-yl)morpholine]
- tumor inhibition [4, 15]: 30%
- partial regressions [4, 16]: 2
- partial regressions ([5]; FIG. 31): 0
- tumor inhibition ([5]; FIG. 31, Formula IIa 100 mg/kg oral daily 21 days): 5%
- tumor inhibition [6, 17]: 82%
- tumor inhibition [6, 18]: 51%
- tumor inhibition ([7]; FIG. 29, end of study, Formula IIa 50 mg/kg, oral daily 14 days): 27%
- tumor inhibition [8, 19]: 32%
- oral bioavailability [9]: orally bioavailable

Molecule: CS(=O)(=O)N1CCN(Cc2cc3nc(-c4cccc5[nH]ncc45)nc(N4CCOCC4)c3s2)CC1 [Formula Ia, 4-(2-(1H-indazol-4-yl)-6-((4-(methylsulfonyl)piperazin-1-yl)methyl)thieno[3,2-d]pyrimidin-4-yl)morpholine]
- survival [10]: modest (not statistically significant) effect on survival
- tumor growth via ultrasound [10]: initial decrease in tumor growth
- tumor inhibition [4, 20]: 75%
- tumor inhibition [4, 21]: 66%
- partial regressions [4, 22]: 3
- partial regressions ([5]; FIG. 30): 0
- tumor inhibition ([5]; FIG. 30, HRLN nu/nu mice, Formula Ia 150 mg/kg oral daily 21 days): 36%
- tumor inhibition [6, 23]: 49%
- tumor inhibition [6, 24]: 10%
- tumor inhibition ([7]; FIG. 28, after 20 days, Formula Ia 50 mg/kg, oral daily 16 days): 17%
- tumor inhibition [8, 25]: 54%
- survival [11]: no effect on survival
- tumor growth as measured by microCT imaging [11]: minimally affected tumor growth
- oral bioavailability [9]: orally bioavailable
- survival [12]: did have an effect (significant hazard ratio) on survival
- tumor growth as assessed by microCT imaging [12]: did not show effects on tumor growth

Molecule: Cc1c(CN2CCN(C(=O)[C@H](C)O)CC2)sc2c(N3CCOCC3)nc(-c3cnc(N)nc3)nc12 [Formula Ib, (S)-1-(4-((2-(2-aminopyrimidin-5-yl)-7-methyl-4-morpholinothieno[3,2-d]pyrimidin-6-yl)methyl)piperazin-1-yl)-2-hydroxypropan-1-one]
- oral bioavailability [9]: orally bioavailable

Molecule: Nc1ccn([C@@H]2O[C@H](CO)[C@@H](O)C2(F)F)c(=O)n1 [Gemcitabine, 4-amino-1-[3,3-difluoro-4-hydroxy-5-(hydroxymethyl)tetrahydrofuran-2-yl]-1H-pyrimidin-2-one]
- pAkt levels [13]: increased pAkt levels

Molecule: OCCn1cc(-c2ccc3c(c2)CC/C3=N\O)c(-c2ccncc2)n1 [HPPD, 5-(1-(2-hydroxyethyl)-3-(pyridin-4-yl)-1H-pyrazol-4-yl)-2,3-dihydro-1H-inden-1-one oxime]
- IC50 [14]: 87 nM

Molecule: (2R,3S)-N-carboxy-3-phenylisoserine, N-tert-butyl ester, 13-ester with 5,20-epoxy-1,2,4,7,10,13-hexahydroxytax-11-en-9-one 4-acetate 2-benzoate, trihydrate [docetaxel, reference compound]
- tumor inhibition [4, 20]: 78%
- tumor inhibition [4, 21]: 26%
- partial regressions [4, 22]: 2
- tumor inhibition [4, 15]: 35%
- partial regressions [4, 16]: 3
- tumor inhibition [6, 23]: 95%
- tumor inhibition [6, 24]: 68%
- tumor inhibition [6, 17]: 95%
- tumor inhibition [6, 18]: 68%
- tumor inhibition [8, 25]: 36%
- tumor inhibition [8, 19]: 36%
